Test [1] deals with MCF7 cell line. The test is described as follows: CellTiter-Glo 2.0 cell viability, 7x7 combination dose response matrix, synergy scoring. Type of test: cell-based. An excerpt:
(§1) A study was undertaken to determine whether the combination of a GSPT1-directed MGD and an inhibitor of the PI3K/AKT/mTOR pathway could be effective in killing cancer cells and whether certain combination could elicit a greater than additive effect on cell killing.
(§2) FIG. 1 is a flow diagram of the method used to assess cancer cell killing by a combination of a GSPT1-directed MGD and an inhibitor of the PI3K/AKT/mTOR pathway. Certain of the materials and equipment used in the studies are presented in Table 3 and the cell lines used are presented in Table 4.
(§3) All assays were run in triplicate. Each 384-well plate accommodated six 7×7 dose response matrices (FIG. 2). All compound handling was performed using an Echo 650 Series Acoustic Liquid Handler, which enables fully automated, precise, contact-free acoustic transfer in volumes as low as 2.5 nL.
(§4) The following protocol was used for cell plating: • 1. Warm media to room temperature or 37° C. • 2. Prepare complete phenol-free media by adding 10% FBS+1% Pen-Strep to RPMI 1640 Medium or DMEM. • 3. Aspirate media from T175 tissue culture flask and rinse with 10 ml PBS. • 4. Aspirate PBS and add 2 mL 0.25% trypsin. Incubate the flask at 37° C. for 5 min or until cells are detached. • 5. Add 10 mL complete media to the flask to neutralize the trypsin, then collect cells in a 50 mL conical tube. • 6. Centrifuge cells at 300 g for 5 min. Aspirate media and suspend cell pellet in fresh media. Use cell strainer to strain cells into a new 50 mL conical tube. • 7. […] Mix 100 uL cell suspension with 100 uL trypan blue (1:1) and pipette 20 μL of the mixture into each of 2 counting chambers on a slide. Insert slide. • b. Adjust focus and record the live cell count. At least 2 independent measurements should be taken. […] Cell viability should be greater than 90%. […] Dilute cell suspension to the desired concentration (20000 cells/mL) using complete phenol-free media. Prepare 10 mL cell suspension per plate+an extra 10 mL for priming the liquid handler. • 9. Dispense cells into 384-well plates using the liquid handler at 25 uL/well (500 cells/well). 3 plates should be prepared per compound plate to be treated. • 10. Cells should be dispensed into columns 1-23 only. Media only (no cells) should be dispensed into column 24. • 11. Allow plates to rest at RT for 30 minutes before transferring to the incubator. Incubate cells overnight at 37° C., 95% humidity, and 5% CO2.
(§5) Compound plates were prepared as follows using an Echo 650 Series Acoustic Liquid Handler. • 1. A compound plate containing 7-point dose responses of each compound to be treated is first prepared from stock compounds. • 2. The cell plates are treated with compounds according to the following maps, where the first compound is added across all six 7 by 7 dose response matrices, and its concentration varies by row (FIG. 2; top matrix), whereas the second compound varies for each dose response matrix, and its concentration varies by column (FIG. 2; bottom matrix). Each cell plate receives one Compound A and six different Compound Bs. • 3. To prepare a compound plate, 384-well PP plate with stock compounds (highest concentration) is prepared. Compounds are diluted 1:1000 in the cell plates, e.g. 10 mM on compound plate will be 10 uM on cell plate. A 384-well LDV plate with pre-determined volumes of DMSO is prepared. Echo is used to dilute stock compounds from PP plate into LDV plate to prepare 7-point dose responses.
(§6) Compounds were added to the cells and cell viability was measured after 72 hour incubation using CellTiter-Glo 2.0 Cell Viability Assay (Promega): • 1. For a compound addition, Echo is used to transfer 25 nL from the compound plate wells to the cell plates according to the plate maps shown in FIG. 2. Cell plates are treated in triplicate. Each well of the cell plate has 25 uL media (1:1000 dilution). Incubate cells post-treatment at 37° C., 95% humidity, and 5% CO2 for 72 hrs (step 106). • 2. […]
(In ATP-based viability assays light output follows the ATP content of the culture.)

Test [2] deals with MDA-MB-231 cell line. Described as above. Type of test: cell-based. Particulars: MDA-MB-231; combined with M2698 41-10000 nM; first compound 0.41-100 nM.
Excerpt: as §1, §2, §3, §4, §5, §6

For test [3], the system named is CAL51 cell line. Described as above. Type of test: cell-based.
Excerpt: as §1, §2, §3, §4, §5, §6

Test [4] deals with MDA-MB-157 cell line. The test is described as above. Type of test: cell-based. Particulars: combined with M2698 41-10000 nM, first compound 0.41-100 nM.
Excerpt: as §1, §2, §3, §4, §5, §6

Test [5] concerns SU-DHL-6 cell line. The test is described as follows: CTG viability, 11x11 concentration matrix, Loewe synergy (lymphoma). The conditions noted are these: inhibitor combined with compound 1-1, 11x11 matrix, 72 hours.
Experimental: (§7) Cells were cultured in the media recommended by the supplier.
(§8) On the day before compound addition, cells were seeded in 384-well-plates (white with clear flat bottom) at the densities indicated in Table 6 in 40 μL of growth medium. The next day, compounds were dispensed from 10 mM stocks using a HP D300 dispenser according to the concentration matrices described above. For each cell line, the compound concentration matrices were dispensed twice as side-by-side duplicates on one 384-well-plate. In addition, each plate contained 14 wells with only growth medium and 44 wells with cells treated with DMSO alone to calculate the average background and maximal signals, respectively. The final DMSO concentration was normalized to 0.2% across the plates. Plates were then incubated for 72 hours. CellTiter-Glo® Luminescent Cell Viability Assay (CTG, Promega G7570) reagent was prepared according to the manufacturer's instructions. Plates were equilibrated to room temperature for approximately 30 minutes, 25 μL CTG reagent was added to each well and plates were mixed on an orbital shaker for 10 minutes to allow for cell lysis. After further incubation for 20 minutes at room temperature, the clear bottoms of the plates were pasted with white back seal and luminescence was read on an EnVision plate reader (measurement time 0.1 seconds).
Test [6] has as its system DOHH-2 cell line. The test is described as above. Particulars: inhibitor combined with compound 1-1, 11x11 matrix, 72 hours.
Experimental: as §7, §8
Test [7] concerns RAJI cell line. Described as above. Particulars: inhibitor combined with compound 1-1, 11x11 matrix, 72 hours.
Experimental: as §7, §8
For test [8], the system named is DB cell line. The description is as above. The conditions noted are these: inhibitor combined with compound 1-1, 11x11 matrix, 72 hours.
Experimental: as §7, §8
Test [9] concerns WSU-DLCL2 cell line. The test is described as above. The conditions noted are these: inhibitor combined with compound 1-1, 11x11 matrix, 72 hours.
Experimental: as §7, §8
[10] abbreviates: MCF7, combined with Alpelisib 41-10000 nM, first compound 0.41-33.33 nM.
Setting [11] is: MCF7, combined with M2698 41-10000 nM, first compound 0.41-100 nM.
[12] abbreviates: CAL51, combined with Alpelisib 41-10000 nM, first compound 0.41-33.33 nM.
Where [13] appears, read: CAL51, combined with M2698 41-10000 nM, first compound 0.41-100 nM.
[14] abbreviates: MCF7, combined with Alpelisib 41-10000 nM, first compound 0.41-100 nM.
Where [15] appears, read: MCF7, combined with Capivasertib 41-10000 nM, first compound 0.41-100 nM.
Setting [16] is: MCF7, combined with GNE-477 41-10000 nM, first compound 0.41-100 nM.
The mark [17] stands for this setting: MCF7, combined with HS173 41-10000 nM, first compound 0.41-100 nM.
Where [18] appears, read: MCF7, combined with Serabelisib 41-10000 nM, first compound 0.41-100 nM.
[19] abbreviates: CAL51, combined with Alpelisib 41-10000 nM, first compound 0.41-100 nM.
[20] abbreviates: CAL51, combined with Capivasertib 41-10000 nM, first compound 0.41-100 nM.
Setting [21] is: CAL51, combined with GNE-477 41-10000 nM, first compound 0.41-100 nM.
Setting [22] is: CAL51, combined with HS173 41-10000 nM, first compound 0.41-100 nM.
Setting [23] is: CAL51, combined with Serabelisib 41-10000 nM, first compound 0.41-100 nM.

Turning to `O=C1CCC(N2Cc3ccc(COC(=O)Nc4ccc(F)c(OC(F)(F)F)c4)cc3C2=O)C(=O)N1` (stereo not shown) [Compound 1-2, [2-(2,6-dioxopiperidin-3-yl)-3-oxo-2,3-dihydro-1H-isoindol-5-yl]methyl N-[4-fluoro-3-(trifluoromethoxy)phenyl]carbamate], the “Mean Bliss synergy score” value is on record as 14.93 in [1] (setting [10]); 19.15 in test [1] (setting [11]); 1.26 in [2]; 13.24 in [3] (setting [12]); 20.45 in test [3] (setting [13]); 20.45 in [3] (combined with M2698 (41 nM to 10 uM), CAL51 cell line, mean across dose response matrix, 72 hrs). In addition, the “Mean Bliss synergy score” value in test [4] is given as 4.58. In addition, the “Mean Loewe synergy score” value in test [1] (setting [10]) worked out at 11.94; in test [1] (setting [11]) it was 12.31; in test [2], 3.82; in test [3] (setting [12]), 10.04; in [3] (setting [13]) it was 10.06; in test [4], 5.68.

As for `O=C1CCC(N2Cc3ccc(COC(=O)Nc4ccc(F)c(OC(F)F)c4)cc3C2=O)C(=O)N1` (stereo not shown) [Compound 1-3, [2-(2,6-dioxopiperidin-3-yl)-3-oxo-2,3-dihydro-1H-isoindol-5-yl]methyl N-[3-(difluoromethoxy)-4-fluorophenyl]carbamate], the “Mean Bliss synergy score” value was found to be 17.71 in test [1] (setting [10]); 25.34 in [1] (setting [11]); 17.71 in [1] (combined with Alpelisib (41 nM to 10 uM), MCF7 cell line, mean across dose response matrix, 72 hrs); 5.67 in test [2]; 13.63 in [3] (setting [12]); 30.29 in test [3] (setting [13]). In addition, the “Mean Bliss synergy score” value in test [4] stood at 6.71. Moreover, the “Mean Loewe synergy score” value is given as 10.32 in test [1] (setting [10]); 13.77 in [1] (setting [11]); 4.75 in [2]; 8.54 in test [3] (setting [12]); 15.43 in [3] (setting [13]); 6.57 in [4].

With `Cc1cc(C)cc(NC(=O)OCc2ccc3c(c2)C(=O)N(C2CCC(=O)NC2=O)C3)c1` (stereo not shown) [Compound 1-4, [2-(2,6-dioxopiperidin-3-yl)-3-oxo-2,3-dihydro-1H-isoindol-5-yl]methyl N-(3,5-dimethylphenyl)carbamate], the “Mean Bliss synergy score” value in [1] (setting [10]) is given as 9.41; in [1] (setting [14]) it was 17.96; in test [1] (setting [15]), 17.17; in [1] (setting [16]), 9.39; in test [1] (setting [17]) it was 3.51; in [1] (setting [11]), 14.55. Also, the “Mean Bliss synergy score” value is reported as 4.26 in [1] (setting [18]); 2.10 in [2]; 10.76 in test [3] (setting [12]); 36.63 in [3] (setting [19]); 30.43 in test [3] (setting [20]); 15.82 in test [3] (setting [21]). The “Mean Bliss synergy score” value in [3] (setting [22]) is on record as 8.74; in [3] (setting [13]), 16.31; in test [3] (setting [23]), 5.71; in test [3] (combined with Alpelisib (41 nM to 10 uM), CAL51 cell line, mean across dose response matrix, 72 hrs), 36.63; in [4], 4.94. Further, the “Mean Loewe synergy score” value in test [1] (setting [10]) is 7.90; in test [1] (setting [14]) it was 9.59; in [1] (setting [15]) it was 9.85; in [1] (setting [16]), 7.58; in [1] (setting [17]), 1.27; in [1] (setting [11]), 7.79. The “Mean Loewe synergy score” value in test [1] (setting [18]) was 1.36; in [2] it was 2.36; in [3] (setting [12]), 7.63; in test [3] (setting [19]) it was 11.29; in [3] (setting [20]), 14.67; in test [3] (setting [21]), 6.64. The “Mean Loewe synergy score” value in [3] (setting [22]) is given as 1.29; in test [3] (setting [13]), 8.47; in [3] (setting [23]), −1.80; in [4], 5.54.

For `O=C1CCC(N2Cc3ccc(COC(=O)Nc4cccc(OC(F)(F)F)c4)cc3C2=O)C(=O)N1` (stereo not shown) [Compound 1-5, [2-(2,6-dioxopiperidin-3-yl)-3-oxo-2,3-dihydro-1H-isoindol-5-yl]methyl N-[3-(trifluoromethoxy)phenyl]carbamate], the “Mean Bliss synergy score” value in test [1] (setting [10]) is reported as −2.19; in test [1] (setting [11]), 5.35; in [2], 1.74; in [3] (setting [12]) it was −0.17; in test [3] (setting [13]) it was 7.95; in test [4] it was 2.85. For the same compound, the “Mean Loewe synergy score” value in test [1] (setting [10]) is 6.06; in test [1] (setting [11]), 12.24; in test [2], 3.68; in test [3] (setting [12]), 7.63; in test [3] (setting [13]), 11.33; in test [4] it was 4.08.

Consider `CC[C@H](Nc1ncnc2nc[nH]c12)c1nc2cccc(F)c2c(=O)n1-c1ccccc1` [idelalisib, 5-fluoro-3-phenyl-2-[(1S)-1-(7H-purin-6-ylamino)propyl]quinazolin-4-one], for which the “Mean Loewe synergy score, SUDHL6” value in test [5] turned out to be 5.75. Besides, the “Mean Loewe synergy score, DOHH2” value in test [6] worked out at 4.04. The “Mean Loewe synergy score, RAJI” value in test [7] was 3.47. Moreover, the “Mean Loewe synergy score, DB” value in [8] is −3.25. The “Mean Loewe synergy score, WSU-DLCL2” value in test [9] is listed as −2.08.

The values are drawn from patent publication US20260166045A1, “COMBINATION THERAPY COMPRISING GSPT1-DIRECTED MOLECULAR GLUE DEGRADERS AND PI3K/AKT/mTOR PATHWAY INHIBITORS” (Monte Rosa Therapeutics, Inc., priority 2022, published 2026).
